We go through one compound from ChEMBL document CHEMBL3612012, “Identification of orally-bioavailable antagonists of the TRPV4 ion-channel” (Bioorg Med Chem Lett, 2015).

Series [1] is described as follows: Plasma protein binding in rat. The format is ADME, cell-free. Conditions: read-out: PPB (converted).
In series [2] the target is Melanocortin receptor 4 (Homo sapiens) (UniProt P32245). Put plainly: Binding affinity to human MC4 receptor assessed as inhibition of control specific binding at 10 uM.
Melanocortin receptor 4 (Homo sapiens), sequence (P32245 whole entry): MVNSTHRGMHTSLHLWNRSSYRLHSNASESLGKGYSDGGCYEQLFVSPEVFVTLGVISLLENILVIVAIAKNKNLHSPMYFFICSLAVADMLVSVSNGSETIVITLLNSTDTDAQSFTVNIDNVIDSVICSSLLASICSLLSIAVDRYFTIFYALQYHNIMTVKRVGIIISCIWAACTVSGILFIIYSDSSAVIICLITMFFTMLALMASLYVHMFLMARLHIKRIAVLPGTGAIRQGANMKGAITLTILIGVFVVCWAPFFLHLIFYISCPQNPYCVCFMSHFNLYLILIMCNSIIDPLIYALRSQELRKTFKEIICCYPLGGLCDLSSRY
In series [3] the target is Muscarinic acetylcholine receptor M3 (Homo sapiens) (UniProt P20309). Put plainly: Binding affinity to human M3 receptor assessed as inhibition of control specific binding at 10 uM.
Muscarinic acetylcholine receptor M3 (Homo sapiens), sequence (P20309 whole entry, looked up): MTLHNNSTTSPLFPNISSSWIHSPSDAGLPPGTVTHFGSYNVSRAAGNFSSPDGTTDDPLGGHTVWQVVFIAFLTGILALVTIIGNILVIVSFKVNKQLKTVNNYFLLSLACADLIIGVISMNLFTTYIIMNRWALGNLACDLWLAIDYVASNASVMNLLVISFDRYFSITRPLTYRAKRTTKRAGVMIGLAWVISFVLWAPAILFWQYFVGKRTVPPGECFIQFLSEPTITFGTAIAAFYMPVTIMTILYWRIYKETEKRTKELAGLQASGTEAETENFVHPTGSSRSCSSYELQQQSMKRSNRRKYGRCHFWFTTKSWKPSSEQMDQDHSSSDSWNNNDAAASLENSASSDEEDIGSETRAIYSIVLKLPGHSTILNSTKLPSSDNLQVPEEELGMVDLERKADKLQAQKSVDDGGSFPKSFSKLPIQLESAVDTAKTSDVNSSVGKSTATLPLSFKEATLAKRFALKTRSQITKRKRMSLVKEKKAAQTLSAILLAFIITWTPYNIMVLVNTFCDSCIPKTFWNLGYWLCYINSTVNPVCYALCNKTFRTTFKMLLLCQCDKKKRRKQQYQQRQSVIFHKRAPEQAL

For `CC(C)N1CCN(S(=O)(=O)c2ccc(NC(=O)c3ccc(C(F)(F)F)cc3[N+](=O)[O-])cc2)CC1`, the fraction unbound in series [1] was 0.01. Moreover, the figures for the inhibition in series [2] and in series [3] were -8% and 21%, respectively.
